# Assay results reported in doi:10.64898/2025.12.10.692519v1 (biorxiv, 2025).
# Like-named read-outs stand apart in the source and are kept apart here.
# Tests used:
# ALDH1A1 = ALDH1A1 (Homo sapiens, UniProt P00352); test: NADH fluorescence dehydrogenase assay; type: biochemical
# ALDH2 = ALDH2 (Homo sapiens, UniProt P05091); test: NADH fluorescence dehydrogenase assay; type: biochemical
# A-549 = test: cells; conditions: Homo sapiens, A549, 144 h, read-out: AB8939
# A4573 = test: cells; conditions: A4573, 144 h, read-out: AB8939
# ACHN = test: cells; conditions: Homo sapiens, ACHN, 144 h, read-out: AB8939
# CCRF-CEM = test: cells; conditions: Homo sapiens, CCRF-CEM, 144 h, read-out: AB8939
# DU-145 = test: cells; conditions: Homo sapiens, DU-145, 144 h, read-out: AB8939
# HEP-2 = test: cells; conditions: Homo sapiens, HEp-2, 144 h, read-out: AB8939
# HGC-27 = test: cells; conditions: Homo sapiens, HGC-27, 144 h, read-out: AB8939
# HL-60 = test: cells; conditions: Homo sapiens, HL-60, 144 h, read-out: AB8939
# HUT-78 = test: cells; conditions: Homo sapiens, HuT78, 144 h, read-out: AB8939
# Karpas-299 = test: cells; conditions: Homo sapiens, KARPAS-299, 144 h, read-out: AB8939
# LnCaP = test: cells; conditions: Homo sapiens, LNCaP, 144 h, read-out: AB8939
# MCF-7 = test: cells; conditions: Homo sapiens, MCF7, 144 h, read-out: AB8939
# MESSA [1] = test: cells; conditions: Homo sapiens, MES-SA, 144 h, read-out: AB8939
# MOLM-14 = test: cells; conditions: Homo sapiens, MOLM-14, 144 h, read-out: AB8939
# NALM-6 = test: cells; conditions: Homo sapiens, NALM-6, 144 h, read-out: AB8939
# NOMO-1 = test: cells; conditions: Homo sapiens, NOMO-1, 144 h, read-out: AB8939
# PANC-1 = test: cells; conditions: Homo sapiens, PANC-1, 144 h, read-out: AB8939
# PC-3 = test: cells; conditions: Homo sapiens, PC-3, 144 h, read-out: AB8939
# PLC-PRF5 = test: cells; conditions: Homo sapiens, PLC-PRF-5, 144 h, read-out: AB8939
# REC-1 = test: cells; conditions: Homo sapiens, Rec1, 144 h, read-out: AB8939
# SK-N-MC = test: cells; conditions: Homo sapiens, SK-N-MC, 144 h, read-out: AB8939
# SW-872 = test: cells; conditions: Homo sapiens, SW872, 144 h, read-out: AB8939
# THP-1 = test: cells; conditions: Homo sapiens, THP-1, 144 h, read-out: AB8939
# Tov21G = test: cells; conditions: Homo sapiens, TOV21G, 144 h, read-out: AB8939
# U-118 = test: cells; conditions: 144 h, read-out: AB8939
# U2OS = test: cells; conditions: Homo sapiens, U2OS, 144 h, read-out: AB8939
# MESSA [2] = test: cells; parameters: species or system MES-SA/Mx2; conditions: Homo sapiens, MES-SA, read-out: MES-SA
# Sequence of ALDH1A1 (P00352 2-501): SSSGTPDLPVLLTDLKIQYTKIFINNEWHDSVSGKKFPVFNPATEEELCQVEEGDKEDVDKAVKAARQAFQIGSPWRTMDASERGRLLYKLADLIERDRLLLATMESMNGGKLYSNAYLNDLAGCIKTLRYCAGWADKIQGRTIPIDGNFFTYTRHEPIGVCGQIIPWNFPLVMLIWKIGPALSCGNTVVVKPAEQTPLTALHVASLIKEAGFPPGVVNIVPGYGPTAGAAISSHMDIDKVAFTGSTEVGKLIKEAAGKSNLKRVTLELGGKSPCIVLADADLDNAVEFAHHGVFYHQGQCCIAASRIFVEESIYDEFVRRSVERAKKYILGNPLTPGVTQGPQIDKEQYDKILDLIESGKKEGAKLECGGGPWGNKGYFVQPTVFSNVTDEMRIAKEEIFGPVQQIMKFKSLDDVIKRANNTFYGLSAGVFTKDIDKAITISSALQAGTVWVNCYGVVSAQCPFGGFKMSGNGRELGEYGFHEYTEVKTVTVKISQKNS
# Sequence of ALDH2 (P05091 17-517): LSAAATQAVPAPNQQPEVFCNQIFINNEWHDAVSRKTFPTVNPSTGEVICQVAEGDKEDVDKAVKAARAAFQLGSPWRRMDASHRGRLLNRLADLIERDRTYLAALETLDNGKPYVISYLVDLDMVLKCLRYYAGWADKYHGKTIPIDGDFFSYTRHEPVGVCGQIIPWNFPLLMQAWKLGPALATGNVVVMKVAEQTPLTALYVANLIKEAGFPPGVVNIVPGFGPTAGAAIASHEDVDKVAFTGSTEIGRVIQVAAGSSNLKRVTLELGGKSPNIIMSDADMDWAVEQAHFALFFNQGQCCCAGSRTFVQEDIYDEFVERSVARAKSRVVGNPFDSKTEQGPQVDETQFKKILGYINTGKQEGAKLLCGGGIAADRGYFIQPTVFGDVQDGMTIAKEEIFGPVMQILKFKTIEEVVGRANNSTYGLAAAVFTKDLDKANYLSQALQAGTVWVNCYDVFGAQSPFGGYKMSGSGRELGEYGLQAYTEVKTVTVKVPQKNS
smiles,measurement,setting,value
CCOCc1ccc(C)c(Nc2ncc(-c3ccc(N4CCNC4=O)cc3)o2)c1 [AB8939],IC50,ALDH1A1,610 nM
same,IC50,ALDH2,340 nM
same,IC50,A-549,1 nM
same,IC50,A4573,3 nM
same,IC50,ACHN,4 nM
same,IC50,CCRF-CEM,1 nM
same,IC50,DU-145,2 nM
same,IC50,HEP-2,1 nM
same,IC50,HGC-27,1 nM
same,IC50,HL-60,14 nM
same,IC50,HUT-78,4 nM
same,IC50,Karpas-299,1 nM
same,IC50,LnCaP,5 nM
same,IC50,MCF-7,122 nM
same,IC50,MESSA [1],7 nM
same,IC50,MOLM-14,14 nM
same,IC50,NALM-6,1 nM
same,IC50,NOMO-1,46 nM
same,IC50,PANC-1,1 nM
same,IC50,PC-3,8 nM
same,IC50,PLC-PRF5,2 nM
same,IC50,REC-1,4 nM
same,IC50,SK-N-MC,1 nM
same,IC50,SW-872,1 nM
same,IC50,THP-1,49 nM
same,IC50,Tov21G,8 nM
same,IC50,U-118,1 nM
same,IC50,U2OS,1 nM
same,IC50,MESSA [2],5.7 ± 5 nM
